According to US20240368157A1, “FORMS AND COMPOSITIONS OF A JAK2 INHIBITOR” (Ajax Therapeutics, Inc., priority 2023, published 2024):
Values after ≈ are worked out from the molar mass of the structure shown.

Assays:
Kinetic Solubility Assay = type: physicochemical; conditions: aqueous buffer, kinetic from dmso stock, PBS, RT, pH of the reported value not stated (method: pH 4.0 and pH 7.4)
Procedure: Stock solutions of test compounds are prepared in DMSO at the concentration of 10 mM, and a stock solution of control compound is prepared in DMSO at the concentration of 30 mM. Diclofenac is used as positive control in the assay. 30 μL stock solution of each compound is placed into their a 96-well rack, followed by adding 970 μL of PBS at pH 4.0 and pH 7.4 into each vial of the cap-less solubility sample plate. This study is performed in duplicate. One stir stick is added to each vial and then vials are sealed using a molded PTDE/SIL 96-Well Plate Cover. The solubility sample plate is transferred to the Thermomixer comfort plate shaker and incubated at RT for 2 hours with shaking at 1100 rpm. After 2 hours incubation, stir sticks are removed using a big magnet and all samples from the solubility sample plate are transferred into the filter plate. All the samples are filtered by vacuum manifold. The filtered samples are diluted with methanol. Samples are analyzed by LC-MS/MS and quantified against a standard of known concentration in DMSO using LC coupled with Mass spectral peak identification and quantitation. The solubility values of the test compounds are calculated as follows, wherein INJ VOL is injection volume, DF is dilution factor, and STD is standard: […]

Caco2 Permeability Assay = type: in vitro ADME; conditions: human, Caco-2, pH 7.4; for Papp A→B at 2 h, 5 μM: apical to basolateral; for efflux ratio at 2 h, 5 μM: read-out: Efflux Ratio (ER)
Procedure: Preparation of Caco-2 Cells: 50 μL and 25 mL of cell culture medium are added to each well of a Transwell® insert and reservoir, respectively. Then, the HTS Transwell® plates are incubated at 37° C., 5% CO2 for 1 hour before cell seeding. Caco-2 cell cells are diluted to 6.86×10^5 cells/mL with culture medium, and 50 μL of cell suspension are dispensed into the filter well of the 96-well HTS Transwell® plate. Cells are cultivated for 14-18 days in a cell culture incubator at 37° C., 5% CO2, 95% relative humidity. Cell culture medium is replaced every other day, beginning no later than 24 hours after initial plating.
Preparation of Stock Solutions: 10 mM stock solutions of test compounds arc prepared in DMSO. The stock solutions of positive controls are prepared in DMSO at the concentration of 10 mM. Digoxin and propranolol are used as control compounds in this assay.
Assessment of Cell Monolayer Integrity: Medium is removed from the reservoir and each Transwell® insert and is replaced with prewarmed fresh culture medium. Transepithelial electrical resistance (TEER) across the monolayer is measured using Millicell Epithelial Volt-Ohm measuring system (Millipore, USA). The Plate is returned to the incubator once the measurement is done. The TEER value is calculated according to the following equation: TEER measurement (ohms)×Area of membrane (cm^2)=TEER value (ohm·cm^2). A TEER value greater than 230 ohm·cm^2 indicates a well-qualified Caco-2 monolayer.
Assay Procedure: The Caco-2 plate is removed from the incubator and washed twice with pre-warmed HBSS (10 mM HEPES, pH 7.4), and then incubated at 37° C. for 30 minutes. The stock solutions of control compounds are diluted in DMSO to get 1 mM solutions and then diluted with HBSS (10 mM HEPES, pH 7.4) to get 5 μM working solutions. The stock solutions of the test compounds are diluted in DMSO to get 1 mM solutions and then diluted with HBSS (10 mM HEPES and 4% BSA, pH 7.4) to get 5 μM working solutions. The final concentration of DMSO in the incubation system is 0.5%. To determine the rate of drug transport in the apical to basolateral direction. 75 μL of 5 μM working solutions of test compounds are added to the Transwell® insert (apical compartment) and the wells in the receiver plate (basolateral compartment) are filled with 235 μL of HBSS (10 mM HEPES and 4% BSA, pH 7.4). To determine the rate of drug transport in the basolateral to apical direction, 235 μL of 5 μM working solutions of test compounds are added to the receiver plate wells (basolateral compartment) and then the Transwell® inserts (apical compartment) are filled with 75 μL of HBSS (10 mM HEPES and 4% BSA, pH 7.4). […]

| SMILES | solubility at 2 h (Kinetic Solubility Assay) [µM] | Papp A→B at 2 h, 5 μM (Caco2 Permeability Assay) [×10⁻⁶ cm/s] | efflux ratio at 2 h, 5 μM (Caco2 Permeability Assay) |
| --- | --- | --- | --- |
| CN(C)C(=O)Nc1cc(Oc2cnc3nc(Nc4cc(C(F)(F)F)cn(C)c4=O)n(C)c3c2C#N)ccn1 [Compound 1, 3-(4-((7-cyano-1-methyl-2-((1-methyl-2-oxo-5-(trifluoromethyl)-1,2-dihydropyridin-3-yl)amino)-1H-imidazo[4,5-b]pyridin-6-yl)oxy)pyridin-2-yl)-1,1-dimethylurea] | 9 to 100 (≈ 4.75 to 52.7 µg/mL) | 7 | 2 to 5 |
| CCN1CCN(Cc2ccc(Nc3nc4ccc(Oc5ccnc(NC(C)=O)c5)cc4n3C)cc2C(F)(F)F)CC1 [Compound R-1, reference compound] | 100 to 200 (≈ 56.8 to 114 µg/mL) | 0.4 | 10 to 30 |
